Measurements reported in US8476433B2, “Agent exhibiting the properties of a cognitive function promoter (embodiments)” (Unikorm, priority 2010, dated 2013).

Legend:
Acute toxicity i/p = details: for Therapeutic index LD50/Min. ED: LD50 i/p / minimum effective dose in CPAR; for LD50: in vivo, intraperitoneal
[1] = tested on: learning and memory of mice, scopolamine-induced amnesia; test: Conditioned passive avoidance response (CPAR), step down method, in model of amnesia induced by scopolamine and undertraining; format: in vivo; details: for Number of animals with CPAR (%): male mice; for effect on learning and memory during scopolamine-induced amnesia: mice, i/p before or immediately after training, tested after 2 hours and 24 hours
Source text: In order to study the activity of the synthesized compounds in vivo one of the most used methodologies of examination and assessment of activation of cognitive functions was used—improvement or easier development of conditioned passive avoidance response (CPAR) in animals. From the time of study of cognitive properties of nootropil and up to the present time, conditioned passive avoidance response (CPAR) is used more often than other behavioral procedures for studying and screening of drugs affecting the processes of learning and memory in rodents. CPAR is used for studying the action of drugs on learning (if the tested drug is administered before a training session), on saving or retention in memory (if the drug is administered after the training) and on memory retrieval (administering drugs before memory testing). This method is also used to study and test substances in models of disorders of learning and memory, caused by experimental brain dysfunction (GABA, cholinergic, induced by cholinergic toxin AF64A), alcohol-benzodiazepine induced, electrocution induced, hypoxia induced and age-related amnesias, inhibition of protein synthesis, etc..
Comparative study of the effects of compounds 1 and 2 on learning and memory of mice in tests of conditioned passive avoidance response (CPAR) in model of amnesia, induced by the administration of scopolamine—a blocker of central cholinergic receptors.
Studies were performed using 470 male mice, body mass 20-22 g, using 20 animals for one dose. CPAR conditioning of mice was performed using step down method, in a cell with electrode floor and avoidance area. Parameters of electric stimulation for animals leaving the safety area were 50 V during 3-5 sec. The criterion of learning and memory was the staying of the animal in the area during 1 minute when testing 2 hours after training and 24 hours after training.
Learning deficit was induced by the administration of scopolamine (1.0 mg/kg, intraperitoneal) 15 minutes before the training and by reduction in the number of animal training sessions to 2 instead of 5 (undertraining).
The duration of the mnemotropic action of the compounds in conditions of learning deficit was assessed by the number of animals in a group (in percents), staying in safety zone (with immobilization).
To assess their action of different phases of memory development (fixation, consolidation and reproduction) the tested compounds were administered before the training (before scopolamine) and immediately after the training. The tested compounds were administered intraperitoneally using 2 schedules: […] and, correspondingly, 5 minutes before scopolamine, second—compounds in the same doses right after the training. Control was parallel in each series of experiments: one control group received saline solution instead of the tested compounds and scopolamine, second control group—scopolamine, using the same schedule and doses.
Statistical analysis was conducted with significance of difference from negative control at p<0.05.

[2] = dose 0.01 mg/kg i/p, scopolamine 1.0 mg/kg i/p amnesia
[3] = dose 0.1 mg/kg i/p, scopolamine 1.0 mg/kg i/p amnesia
[4] = dose 1.0 mg/kg i/p, scopolamine 1.0 mg/kg i/p amnesia
[5] = dose 10.0 mg/kg i/p, scopolamine 1.0 mg/kg i/p amnesia

Row | SMILES | Therapeutic index LD50/Min. ED (Acute toxicity i/p) | LD50 (Acute toxicity i/p) | Number of animals with CPAR (%) [1, 2] | Number of animals with CPAR (%) [1, 3] | Number of animals with CPAR (%) [1, 4] | Number of animals with CPAR (%) [1, 5] | effect on learning and memory during scopolamine-induced amnesia [1] | learning ability (animals staying in safety area) after scopolamine ([1]; scopolamine 1.0 mg/kg i/p 15 minutes before training plus undertraining, average, controls about 80%) | Number of animals with CPAR (%) ([1]; scopolamine alone 1.0 mg/kg i/p (amnesia control group))
1 | CN1C(=O)C(=CNc2ccncc2)C(=O)N(C)C1=O [Compound 1, 1,3-dimethyl-5-[(4-pyridylamino)methylene]barbituric acid] | 1530 | 15.3 ± 2.6 mg/kg | 90.0% | 80.0% | 60.0% | 50.0% | improved learning and memory | – | –
2 | Nc1cc[n+](-c2nccc3c2cc([N+](=O)[O-])c(=O)n3-c2ccccc2)cc1 [Compound 2, 4-amino-1-(3-nitro-2-oxo-1-pheny-1,2-dihydro-1,6-naphthyridin-5-yl)pyridinium chloride] | 10770 | 108 ± 14.1 mg/kg | 60% | 80% | 70% | 60% | improved learning and memory | – | –
3 | CN1[C@@H]2C[C@@H](OC(=O)[C@H](CO)c3ccccc3)C[C@H]1[C@@H]1O[C@@H]12 [Scopolamine, scopolamine, reference compound] | – | – | – | – | – | – | – | 28% | 35%
